Test results from patent US4977189A, “Substituted guanidinedicarbonyl derivatives” (American Cyanamid Company, priority 1988, dated 1990).
“And” between values parts separate entries of the source, which are not always exact repeats. Equal entries are not always repeated.

Legend:
[1] = tested on: Royal Hart mice; test: Hypoxic Survival Test; assay type: in vivo, mouse (Royal Hart); settings: Mus musculus, ip, 5 min, 30 minutes prior, 10% oxygen, survival after 5 minutes, read-out: % Survivors; for responders at 50 mg/kg: 50 mg/kg intraperitoneally; for responders at 100 mg/kg: 100 mg/kg intraperitoneally
Experimental: A useful in vivo test that measures how effectively central nervous system-acting drugs enhance survival in a hypoxic environment, presumably by improving the ratio of energy supply to demand is known as the Hypoxic Survival Test. […] Drugs are tested by intraperitoneally injecting groups of mice 30 minutes prior to placing them in a hypoxic mixture and measuring survival. The rationale of this test is that drugs which enhance survival under hypoxic conditions without concomitant, depression or sedative side effects, may do so by enhancing energy metabolism, or by preserving normal brain function under conditions of reduced energy metabolism. Given the dependence of the brain on a constant supply of energy, drugs which have this property may have many far-reaching therapeutic indications, including recovery from stroke and closed head injury, as well as reducing the deleterious effects of the aging central nervous system.
Groups of 20 Royal Hart mice (6 weeks of age) are injected intraperitoneally with test compound (1-200 mg/kg) 30 minutes prior to placing them in a hypoxic mixture (10% oxygen in 90% […]) and measuring survival after 5 minutes.
A separate group of 20 mice is injected intraperitoneally with saline solution (0.01 cc/g of body weight) and processed as described above.
Still another group of 20 mice is injected intraperitoneally with 0.125 mg/kg of physostigmine and processed as described above.

[2] = tested on: Brain-Specific Receptors (3H-benzodiazepine binding); test: Inhibition of the Binding of 3H-Benzodiazepine to Brain-Specific Receptors of Rats; design: species or system rat (male albino, Wistar strain; whole cortex); settings: 3H-diazepam (1.5 nM) or 3H-flunitrazepam (1.0 nM); rat cortex P2-fraction; 30 minutes in ice; test concentration not given
Description: A test utilized for the determination of anxiolytic activity is the measurement of the ability of test compounds to inhibit the binding of tritiated benzodiazepines to brain-specific recptors of warm-blooded animals. A modification of the method described by R. F. Squires, et al., Nature, 266, No. 21, pg 732 (April, 1977) and H. Mohler, et al., Science, 198, pg 849 (1977) was employed.
Male albino rats (Wistar strain, weighing 150-200 g each) were used. The test compounds were solubilized in either dimethylformamide, acetic acid, ethanol or hydrochloric acid.
Whole cortex of rats was homogenized gently in 20 volumes of ice-cold 0.32M sucrose, centrifuged twice at 1000 g for 10 minutes and then recentrifuged at 30,000 g for 20 minutes to produce a crude P2 -synaptosomal fraction. The P2 -fraction was either: (1) resuspended in twice the original volume in hypotonic 50 mM Tris.HCl (pH 7.4), or (2) resuspended in one-half the original volume in hypotonic 10 mM Tris.HCl (pH 7.4) and frozen (-20° C.) until time of use. Frozen P2 preparations were thawed and resuspended in four times the original homogenizing volume at time of assay.
The binding assay consisted of 300 μl of the P2 -fraction suspension (0.2-0.4 mg protein), 100 μl of test drug and 100 μl of ^3 H-diazepam (1.5 nM, final concentration) or ^3 H-flunitrazepam (1.0 nM, final concentration) which was added to 1.5 ml of 50 mM Tris.HCl (pH 7.4). Non-specific binding controls and total binding controls d 100 μl of diazepam (3 μM final concentration) and 100 μl of deionized water, respectively, in place of the test compound. Incubation for 30 minutes proceeded in ice and was terminated by filtration, under vacuum, through glass fiber filters. The filters were washed twice with 5 ml of ice-cold 50 mM Tris.HCl (pH 7.4) and placed in scintillation vials. After drying at 50°-60° C. for 30 minutes, 10 ml of diluent was added and the radioactivity determined in a scintillation counter.
Inhibition of binding was calculated by the difference between total binding and binding in the presence of test compound, divided by the total binding, X 100.

[3] = tested on: Swiss-Webster mice; test: Passive Avoidance Anoxic Induced Amnesia Test; assay type: in vivo, mouse (Swiss-Webster, middle-aged); settings: 50 mg/kg intraperitoneally, 30 minutes prior to training and testing; latency vs saline control; 30% considered active
Description: Another in vivo test associated with decreased neural function in mammals is the Passive-Avoidance Anoxic-Induced-Amnesia Test. This test is used to determine the attenuation of anoxic induced amnesia in mice treated with drug, as compared to saline treated control animals with no drug.
A shock-motivated, single trial, step-through passive avoidance procedure is used. Groups of 25 Swiss-Webster, middle-aged mice (9 months of age) are placed singly in the front chamber of a 2-chamber box and are allowed to voluntarily cross into the rear chamber. As soon as the mouse enters the rear chamber, a door automatically traps the animal and a mild electric shock (0.4 mA for 4 seconds) is delivered to its feet. Following the foot shock, the mice are initially placed in an anoxic environment (0% oxygen) for 12 seconds, which quickly induces unconsciousness. They are then placed in a hypoxic environment (15% oxygen) for four minutes which prolongs the oxygen deprived state, maintaining unconsciousness. All testing is performed 24 hours later, and in all cases the mice appear fully recovered from the previous anoxic/hypoxic treatment. All test compounds are administered intraperitoneally at a dose of 10-200 mg/kg, 30 minutes prior to training and testing. […]
The latency to enter the rear chamber is recorded for both training and testing. […]

For `Cc1cccc(C(=O)N=C(NC(=O)c2cccc(C)c2)Nc2ccc(C(N)=O)cc2)c1` [N,N'-[[4-(Aminocarbonyl)phenyl]carbonimidoyl]bis[3-methylbenzamide]], the responders at 50 mg/kg [1] was 40%, the responders at 100 mg/kg [1] was 43% and the “% Inhibition” value [2] was 25%.
`NC(=O)c1ccc(N=C(NC(=O)c2ccccc2)NC(=O)c2ccccc2)cc1` [N,N'-[[[4-(Aminocarbonyl)phenyl]imino]methylene]bis[benzamide]] was tested, and the responders at 50 mg/kg [1] was 40%, the responders at 100 mg/kg [1] was 62% and the responders at 200 mg/kg ([1]; 200 mg/kg intraperitoneally) was 47%. For the same compound, the “% Improvement” value [3] was 50% and 54%.
In the case of `COc1ccc(C(=O)NC(=NC(=O)c2cccs2)Nc2cccc(C(N)=O)c2)cc1` [N-[[[3-(Aminocarbonyl)phenyl]amino][(4-methoxybenzoyl)amino]methylene]-2-thiophenecarboxamide], the responders at 50 mg/kg [1] is reported as 45%, the responders at 100 mg/kg [1] is reported as 45% and the “% Inhibition” value [2] is reported as 19%.
`COc1ccc(C(=O)NC(=NC(=O)c2ccsc2)Nc2ccc(C(N)=O)cc2)cc1` [N-[[[4-(Aminocarbonyl)phenyl]amino][(4-methoxybenzoyl)amino]methylene]-3-thiophenecarboxamide] was tested, and the “% Inhibition” value [2] was 14%.
For `COc1ccc(C(=O)NC(=NC(=O)c2ccc(C)cc2)Nc2cccc(C(N)=O)c2)cc1` [N-[[[3-(Aminocarbonyl)phenyl]amino][(4-methoxybenzoyl)amino]methylene]-4-methylbenzamide], the “% Inhibition” value [2] was 12%.
